Data: patent publication US20260285850A1, “SUBSTITUTED OXAZOLIDINONES AND IMIDAZOLINONES AS HERBICIDES” (FMC CORPORATION, priority 2023, published 2026)

Experiments:
Type in all cases: in vivo
rice (Oryza sativa) = assay: Test B flooded paddy test, visual plant response rating 0-100; settings: 250 g ai/ha, Flood, applied to paddy water, evaluated after 13 days
Method in brief: (§1)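 Paddy-water application: test compounds went directly into water flooded 3 cm above the soil surface, with plants at 2 leaves. After a 13-day greenhouse period, responses were judged by eye relative to controls; a dash marks an untested entry.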

[1] = tested on: sedge, umbrella (small-flower umbrella sedge, Cyperus difformis); assay: as above; settings: 250 g ai/ha, Flood, applied to paddy water, evaluated after 13 days
Method in brief: as §1

[2] = tested on: barnyardgrass (Echinochloa crusgalli); assay: as above; settings: 250 g ai/ha, Flood, applied to paddy water, evaluated after 13 days
Method in brief: as §1

[3] = tested on: ducksalad (Heteranthera limosa); assay: as above; settings: 250 g ai/ha, Flood, applied to paddy water, evaluated after 13 days
Method in brief: as §1

soybean (Glycine max) [4] = assay: Test A postemergence application, visual injury rating 0-100; settings: for Soybean plant response rating (0 to 100 scale): Postemergence, 16 g ai/ha, greenhouse 10 days, 0 no effect, 100 complete control
Method in brief: (§2)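 Preemergence directed soil spray or postemergence spray (2-10 cm, 1-2 leaf); loam/sand mix; compound in non-phytotoxic solvent + surfactant. Greenhouse, 10 d. Visual injury vs untreated, 0 = none, 100 = complete control.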

[5] = tested on: horseweed (Erigeron canadensis); assay: as above; settings: for Horseweed plant response rating (0 to 100 scale): Postemergence, 16 g ai/ha, greenhouse 10 days, 0 no effect, 100 complete control
Method in brief: as §2

[6] = tested on: palmer (palmer amaranth, palmer pigweed, Amaranthus palmeri); assay: as above; settings: for Pigweed, Palmer plant response rating (0 to 100 scale): Postemergence, 16 g ai/ha, greenhouse 10 days, 0 no effect, 100 complete control
Method in brief: as §2

[7] = tested on: wheat (Triticum aestivum); assay: as above; settings: for Wheat plant response rating (0 to 100 scale): Postemergence, 16 g ai/ha, greenhouse 10 days, 0 no effect, 100 complete control
Method in brief: as §2

[8] = tested on: barnyardgrass (Echinochloa crus-galli); assay: as above; settings: for Barnyardgrass plant response rating (0 to 100 scale): Postemergence, 16 g ai/ha, greenhouse 10 days, 0 no effect, 100 complete control
Method in brief: as §2

[9] = tested on: ryegrass, Italian (italian ryegrass, Lolium multiflorum); assay: as above; settings: for Ryegrass, Italian plant response rating (0 to 100 scale): Postemergence, 16 g ai/ha, greenhouse 10 days, 0 no effect, 100 complete control
Method in brief: as §2

[10] = tested on: green foxtail (Setaria viridis); assay: as above; settings: for Foxtail, Green plant response rating (0 to 100 scale): Postemergence, 16 g ai/ha, greenhouse 10 days, 0 no effect, 100 complete control
Method in brief: as §2

kochia (Bassia scoparia) [11] = assay: as above; settings: for Kochia plant response rating (0 to 100 scale): Postemergence, 16 g ai/ha, greenhouse 10 days, 0 no effect, 100 complete control
Method in brief: as §2

[12] = tested on: galium (catchweed bedstraw, Galium aparine); assay: as above; settings: for Galium plant response rating (0 to 100 scale): Postemergence, 16 g ai/ha, greenhouse 10 days, 0 no effect, 100 complete control
Method in brief: as §2

[13] = tested on: oat, wild (wild oat, Avena fatua); assay: as above; settings: for Oat, Wild plant response rating (0 to 100 scale): Postemergence, 16 g ai/ha, greenhouse 10 days, 0 no effect, 100 complete control
Method in brief: as §2

[14] = tested on: ragweed (common ragweed, Ambrosia artemisiifolia); assay: as above; settings: for Ragweed plant response rating (0 to 100 scale): Postemergence, 16 g ai/ha, greenhouse 10 days, 0 no effect, 100 complete control
Method in brief: as §2

[15] = tested on: blackgrass (Alopecurus myosuroides); assay: as above; settings: for Blackgrass plant response rating (0 to 100 scale): Postemergence, 16 g ai/ha, greenhouse 10 days, 0 no effect, 100 complete control
Method in brief: as §2

corn (Zea mays) [16] = assay: as above; settings: for Corn plant response rating (0 to 100 scale): Postemergence, 16 g ai/ha, greenhouse 10 days, 0 no effect, 100 complete control
Method in brief: as §2

soybean (Glycine max) [17] = assay: Test A preemergence soil spray, visual injury rating 0-100; settings: 10 days; for Soybean plant response rating: 16 g ai/ha, 0 to 100 scale
Method in brief: as §2

[18] = tested on: palmer (palmer amaranth, palmer pigweed, Amaranthus palmeri); assay: as above; settings: 10 days; for Pigweed, Palmer plant response rating: 16 g ai/ha, 0 to 100 scale
Method in brief: as §2

[19] = tested on: wheat (Triticum aestivum); assay: as above; settings: 10 days; for Wheat plant response rating: 16 g ai/ha, 0 to 100 scale
Method in brief: as §2

[20] = tested on: barnyardgrass (Echinochloa crus-galli); assay: as above; settings: 10 days; for Barnyardgrass plant response rating: 16 g ai/ha, 0 to 100 scale
Method in brief: as §2

[21] = tested on: ryegrass, Italian (italian ryegrass, Lolium multiflorum); assay: as above; settings: 10 days; for Ryegrass, Italian plant response rating: 16 g ai/ha, 0 to 100 scale
Method in brief: as §2

[22] = tested on: green foxtail (Setaria viridis); assay: as above; settings: 10 days; for Foxtail, Green plant response rating: 16 g ai/ha, 0 to 100 scale
Method in brief: as §2

kochia (Bassia scoparia) [23] = assay: as above; settings: 10 days; for Kochia plant response rating: 16 g ai/ha, 0 to 100 scale
Method in brief: as §2

[24] = tested on: oat, wild (wild oat, Avena fatua); assay: as above; settings: 10 days; for Oat, Wild plant response rating: 16 g ai/ha, 0 to 100 scale
Method in brief: as §2

[25] = tested on: ragweed (common ragweed, Ambrosia artemisiifolia); assay: as above; settings: 10 days; for Ragweed plant response rating: 16 g ai/ha, 0 to 100 scale
Method in brief: as §2

[26] = tested on: blackgrass (Alopecurus myosuroides); assay: as above; settings: 10 days; for Blackgrass plant response rating: 16 g ai/ha, 0 to 100 scale
Method in brief: as §2

corn (Zea mays) [27] = assay: as above; settings: 10 days; for Corn plant response rating: 16 g ai/ha, 0 to 100 scale
Method in brief: as §2

[28] = 62 g ai/ha, postemergence, 10 days, 0 = no effect, 100 = complete control
[29] = 62 g ai/ha, 0 = no effect, 100 = complete control

CC1(C(=O)NC2C=CC(C(=O)O)C2)CN(c2cc(F)c(F)c(F)c2)C(=O)O1 (centres unmarked) [Compound 123]
Plant response rating, Rice (0 to 100 scale, 0 is no effect and 100 is complete control) (rice (Oryza sativa)): 10
Plant response rating, Sedge, Umbrella (0 to 100 scale, 0 is no effect and 100 is complete control) [1]: 0
Plant response rating, Barnyardgrass (0 to 100 scale, 0 is no effect and 100 is complete control) [2]: 0
Plant response rating, Ducksalad (0 to 100 scale, 0 is no effect and 100 is complete control) [3]: 55
Soybean plant response rating (0 to 100 scale) (soybean (Glycine max) [4]): 60
Horseweed plant response rating (0 to 100 scale) [5]: 0
Pigweed, Palmer plant response rating (0 to 100 scale) [6]: 20
Wheat plant response rating (0 to 100 scale) [7]: 80
Barnyardgrass plant response rating (0 to 100 scale) [8]: 60
Ryegrass, Italian plant response rating (0 to 100 scale) [9]: 60
Foxtail, Green plant response rating (0 to 100 scale) [10]: 30
Kochia plant response rating (0 to 100 scale) (kochia (Bassia scoparia) [11]): 0
Galium plant response rating (0 to 100 scale) [12]: 30
Oat, Wild plant response rating (0 to 100 scale) [13]: 60
Ragweed plant response rating (0 to 100 scale) [14]: 0
Blackgrass plant response rating (0 to 100 scale) [15]: 90
Corn plant response rating (0 to 100 scale) (corn (Zea mays) [16]): 70
Soybean plant response rating (soybean (Glycine max) [17]): 0
Pigweed, Palmer plant response rating [18]: 0
Wheat plant response rating [19]: 80
Barnyardgrass plant response rating [20]: 0
Ryegrass, Italian plant response rating [21]: 0
Foxtail, Green plant response rating [22]: 0
Kochia plant response rating (kochia (Bassia scoparia) [23]): 0
Oat, Wild plant response rating [24]: 10
Ragweed plant response rating [25]: 0
Blackgrass plant response rating [26]: 0
Corn plant response rating (corn (Zea mays) [27]): 0

CC1(C(=O)NC2C=CC(C(=O)O)C2)CN(c2cc(Cl)c(F)c(Cl)c2)C(=O)O1 (centres unmarked) [Compound 124]
Plant response rating, Rice (0 to 100 scale, 0 is no effect and 100 is complete control) (rice (Oryza sativa)): 15
Plant response rating, Sedge, Umbrella (0 to 100 scale, 0 is no effect and 100 is complete control) [1]: 30
Plant response rating, Barnyardgrass (0 to 100 scale, 0 is no effect and 100 is complete control) [2]: 10
Plant response rating, Ducksalad (0 to 100 scale, 0 is no effect and 100 is complete control) [3]: 85
Soybean plant response rating (0-100) (soybean (Glycine max) [4]; [28]): 70
Soybean plant response rating (0 to 100 scale) (soybean (Glycine max) [4]): 40
Horseweed plant response rating (0-100) [5, 28]: 60
Horseweed plant response rating (0 to 100 scale) [5]: 0
Pigweed, Palmer plant response rating (0-100) [6, 28]: 70
Pigweed, Palmer plant response rating (0 to 100 scale) [6]: 50
Wheat plant response rating (0-100) [7, 28]: 90
Wheat plant response rating (0 to 100 scale) [7]: 80
Barnyardgrass plant response rating (0-100) [8, 28]: 90
Barnyardgrass plant response rating (0 to 100 scale) [8]: 70
Ryegrass, Italian plant response rating (0-100) [9, 28]: 90
Ryegrass, Italian plant response rating (0 to 100 scale) [9]: 30
Foxtail, Green plant response rating (0-100) [10, 28]: 80
Foxtail, Green plant response rating (0 to 100 scale) [10]: 10
Kochia plant response rating (0-100) (kochia (Bassia scoparia) [11]; [28]): 90
Kochia plant response rating (0 to 100 scale) (kochia (Bassia scoparia) [11]): 30
Galium plant response rating (0-100) [12, 28]: 90
Galium plant response rating (0 to 100 scale) [12]: 70
Oat, Wild plant response rating (0-100) [13, 28]: 90
Oat, Wild plant response rating (0 to 100 scale) [13]: 30
Ragweed plant response rating (0-100) [14, 28]: 20
Ragweed plant response rating (0 to 100 scale) [14]: 0
Blackgrass plant response rating (0-100) [15, 28]: 90
Blackgrass plant response rating (0 to 100 scale) [15]: 80
Corn plant response rating (0-100) (corn (Zea mays) [16]; [28]): 100
Corn plant response rating (0 to 100 scale) (corn (Zea mays) [16]): 60
Soybean plant response rating (soybean (Glycine max) [17]): 0
Soybean plant response rating (0-100) (soybean (Glycine max) [17]; [29]): 0
Pigweed, Palmer plant response rating [18]: 0
Pigweed, Palmer plant response rating (0-100) [18, 29]: 30
Wheat plant response rating [19]: 20
Wheat plant response rating (0-100) [19, 29]: 90
Barnyardgrass plant response rating [20]: 0
Barnyardgrass plant response rating (0-100) [20, 29]: 40
Ryegrass, Italian plant response rating [21]: 0
Ryegrass, Italian plant response rating (0-100) [21, 29]: 70
Foxtail, Green plant response rating [22]: 0
Foxtail, Green plant response rating (0-100) [22, 29]: 80
Kochia plant response rating (kochia (Bassia scoparia) [23]): 0
Kochia plant response rating (0-100) (kochia (Bassia scoparia) [23]; [29]): 10
Oat, Wild plant response rating [24]: 0
Oat, Wild plant response rating (0-100) [24, 29]: 30
Ragweed plant response rating [25]: 0
Ragweed plant response rating (0-100) [25, 29]: 0
Blackgrass plant response rating [26]: 20
Blackgrass plant response rating (0-100) [26, 29]: 30
Corn plant response rating (corn (Zea mays) [27]): 0
Corn plant response rating (0-100) (corn (Zea mays) [27]; [29]): 50
